Measurements published in paper PMC4648050, “Discovery of Inhibitors of Trypanosoma brucei by Phenotypic Screening of a Focused Protein Kinase Library” (Chemmedchem, 2015).

Legend:
Assay type in all cases: biochemical, human/mammalian
Conditions in all cases: compound at 10 μM, read-out: % of activity respect of the control
IKKe = target: T1, IKKe (Homo sapiens, UniProt Q14164); test: Kinase panel: IKKe
T1 sequence (Q14164 1-716): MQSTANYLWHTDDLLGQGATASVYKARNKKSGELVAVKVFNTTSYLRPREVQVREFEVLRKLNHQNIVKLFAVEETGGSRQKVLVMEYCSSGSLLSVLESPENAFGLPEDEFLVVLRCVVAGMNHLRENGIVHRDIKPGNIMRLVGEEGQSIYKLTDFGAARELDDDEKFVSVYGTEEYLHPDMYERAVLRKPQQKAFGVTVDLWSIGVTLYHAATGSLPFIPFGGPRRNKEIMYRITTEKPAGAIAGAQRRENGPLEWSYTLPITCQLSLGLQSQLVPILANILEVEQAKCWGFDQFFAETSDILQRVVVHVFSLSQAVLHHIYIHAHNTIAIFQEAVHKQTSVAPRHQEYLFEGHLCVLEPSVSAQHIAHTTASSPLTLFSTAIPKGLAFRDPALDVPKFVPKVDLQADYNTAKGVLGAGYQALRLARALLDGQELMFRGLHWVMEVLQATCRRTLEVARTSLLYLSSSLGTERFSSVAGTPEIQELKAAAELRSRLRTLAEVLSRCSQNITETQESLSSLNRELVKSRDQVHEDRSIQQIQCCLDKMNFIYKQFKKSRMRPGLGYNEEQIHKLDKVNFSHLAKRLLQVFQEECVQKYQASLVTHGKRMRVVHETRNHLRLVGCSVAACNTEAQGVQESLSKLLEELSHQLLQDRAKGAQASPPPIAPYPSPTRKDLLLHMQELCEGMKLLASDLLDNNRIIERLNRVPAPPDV
Method: (§1) The DDU kinase-focused compound set contains lead-like scaffolds that are designed to target protein kinases; they have kinase hinge binding motifs. Four of the 1H-imidazopyrazinones were screened against a human/mammalian kinase panel at the University of Dundee (http://www.kinase-screen.mrc.ac.uk) at a concentration of 10 μM. At the time of testing the panel contained 79 mammalian kinases selected to provide a broad coverage of the mammalian kinome (∼500 kinases in the human genome).[3] None of the compounds were active against any of the kinases at 10 μM.

Aurora B = Aurora B (Homo sapiens, UniProt Q96GD4); test: Kinase panel: Aurora B
Method: as §1

TBK1 = target: T2, TBK1 (Homo sapiens, UniProt Q9UHD2); test: Kinase panel: TBK1
T2 sequence (Q9UHD2 1-729): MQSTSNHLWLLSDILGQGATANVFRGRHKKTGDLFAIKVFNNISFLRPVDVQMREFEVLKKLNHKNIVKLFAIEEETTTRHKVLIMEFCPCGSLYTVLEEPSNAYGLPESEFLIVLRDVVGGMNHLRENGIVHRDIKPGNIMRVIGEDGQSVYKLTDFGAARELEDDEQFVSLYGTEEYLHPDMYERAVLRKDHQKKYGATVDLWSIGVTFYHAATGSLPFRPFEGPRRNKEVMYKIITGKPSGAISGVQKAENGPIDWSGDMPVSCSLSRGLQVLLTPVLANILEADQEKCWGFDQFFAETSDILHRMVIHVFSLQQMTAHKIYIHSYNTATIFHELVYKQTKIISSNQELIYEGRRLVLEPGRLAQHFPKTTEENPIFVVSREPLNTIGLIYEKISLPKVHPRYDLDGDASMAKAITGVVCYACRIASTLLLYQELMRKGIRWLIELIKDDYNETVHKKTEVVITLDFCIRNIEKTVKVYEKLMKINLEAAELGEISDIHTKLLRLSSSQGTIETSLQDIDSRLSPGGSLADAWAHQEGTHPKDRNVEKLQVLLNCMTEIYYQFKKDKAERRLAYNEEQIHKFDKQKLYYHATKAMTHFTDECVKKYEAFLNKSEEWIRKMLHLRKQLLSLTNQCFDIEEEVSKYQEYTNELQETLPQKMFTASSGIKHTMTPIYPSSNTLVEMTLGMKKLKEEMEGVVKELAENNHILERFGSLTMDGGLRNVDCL
Method: as §1

PIM3 = PIM3 (Homo sapiens, UniProt Q86V86); test: Kinase panel: PIM3
Method: as §1

PKD1 = target: T3, PKD1 (Homo sapiens, UniProt Q15139); test: Kinase panel: PKD1
T3 sequence (Q15139 1-912): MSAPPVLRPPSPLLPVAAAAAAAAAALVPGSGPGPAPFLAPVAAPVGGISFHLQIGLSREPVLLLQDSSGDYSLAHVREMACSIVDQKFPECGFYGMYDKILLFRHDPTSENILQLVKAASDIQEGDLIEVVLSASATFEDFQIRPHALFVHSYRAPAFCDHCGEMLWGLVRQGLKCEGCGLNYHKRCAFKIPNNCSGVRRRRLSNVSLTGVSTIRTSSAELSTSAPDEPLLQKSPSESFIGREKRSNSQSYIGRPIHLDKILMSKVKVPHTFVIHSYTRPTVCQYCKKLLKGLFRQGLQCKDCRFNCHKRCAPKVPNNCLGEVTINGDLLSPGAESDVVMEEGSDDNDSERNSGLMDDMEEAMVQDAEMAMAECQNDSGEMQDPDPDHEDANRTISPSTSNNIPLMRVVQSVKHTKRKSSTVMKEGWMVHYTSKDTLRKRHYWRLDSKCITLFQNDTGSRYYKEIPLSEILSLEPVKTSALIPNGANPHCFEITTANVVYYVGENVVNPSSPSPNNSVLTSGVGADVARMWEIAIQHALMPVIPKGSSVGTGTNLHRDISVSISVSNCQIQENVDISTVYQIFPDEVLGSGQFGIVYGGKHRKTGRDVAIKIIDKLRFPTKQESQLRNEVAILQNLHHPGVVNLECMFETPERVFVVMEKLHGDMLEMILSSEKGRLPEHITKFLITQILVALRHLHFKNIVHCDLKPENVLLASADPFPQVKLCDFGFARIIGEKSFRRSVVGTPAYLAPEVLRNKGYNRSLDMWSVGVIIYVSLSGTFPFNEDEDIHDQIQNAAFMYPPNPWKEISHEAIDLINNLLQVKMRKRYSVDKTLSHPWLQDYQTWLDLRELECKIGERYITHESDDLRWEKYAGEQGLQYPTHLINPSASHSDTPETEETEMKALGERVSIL
Method: as §1

MNK1 = MNK1 (Homo sapiens, UniProt Q9BUB5); test: Kinase panel: MNK1
Method: as §1

IRR = IRR (Homo sapiens, UniProt P14616); test: Kinase panel: IRR
Method: as §1

PKCa = PKCa (Homo sapiens, UniProt P17252); test: Kinase panel: PKCa
Method: as §1

p38a MAPK = p38a MAPK (Homo sapiens, UniProt Q16539); test: Kinase panel: p38a MAPK
Method: as §1

MNK1, sequence (Q9BUB5 whole entry): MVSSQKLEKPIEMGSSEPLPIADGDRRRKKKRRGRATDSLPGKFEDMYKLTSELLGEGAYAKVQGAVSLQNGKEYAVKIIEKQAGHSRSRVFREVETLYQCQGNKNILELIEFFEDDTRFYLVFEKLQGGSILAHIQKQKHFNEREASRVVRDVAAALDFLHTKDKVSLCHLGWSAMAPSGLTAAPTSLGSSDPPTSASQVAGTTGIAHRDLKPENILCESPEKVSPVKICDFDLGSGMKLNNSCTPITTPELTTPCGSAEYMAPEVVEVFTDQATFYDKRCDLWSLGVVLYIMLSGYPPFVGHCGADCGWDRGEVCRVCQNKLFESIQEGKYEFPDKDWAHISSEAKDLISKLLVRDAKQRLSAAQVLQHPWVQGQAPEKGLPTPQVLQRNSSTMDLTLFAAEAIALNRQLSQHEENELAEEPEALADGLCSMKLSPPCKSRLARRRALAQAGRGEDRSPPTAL
p38a MAPK, sequence (Q16539 whole entry): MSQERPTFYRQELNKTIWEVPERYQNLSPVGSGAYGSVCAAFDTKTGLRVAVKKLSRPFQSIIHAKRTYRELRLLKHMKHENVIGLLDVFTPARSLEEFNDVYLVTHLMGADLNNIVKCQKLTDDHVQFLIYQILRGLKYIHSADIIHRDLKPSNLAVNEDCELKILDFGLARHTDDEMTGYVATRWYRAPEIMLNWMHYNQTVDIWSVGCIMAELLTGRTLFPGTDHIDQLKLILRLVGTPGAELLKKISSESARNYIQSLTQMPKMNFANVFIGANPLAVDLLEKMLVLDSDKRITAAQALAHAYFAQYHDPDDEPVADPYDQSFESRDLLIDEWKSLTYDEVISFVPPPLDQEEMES
Aurora B, sequence (Q96GD4 whole entry): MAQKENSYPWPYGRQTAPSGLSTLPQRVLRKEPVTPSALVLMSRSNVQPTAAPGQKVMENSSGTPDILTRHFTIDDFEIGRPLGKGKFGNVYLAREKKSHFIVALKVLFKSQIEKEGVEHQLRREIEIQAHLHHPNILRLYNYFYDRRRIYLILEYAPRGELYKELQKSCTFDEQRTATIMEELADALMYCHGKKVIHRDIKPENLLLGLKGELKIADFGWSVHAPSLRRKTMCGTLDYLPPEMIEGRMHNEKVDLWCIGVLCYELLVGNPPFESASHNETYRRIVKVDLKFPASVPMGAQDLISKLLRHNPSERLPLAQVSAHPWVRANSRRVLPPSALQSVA
IRR, sequence (P14616 27-1297): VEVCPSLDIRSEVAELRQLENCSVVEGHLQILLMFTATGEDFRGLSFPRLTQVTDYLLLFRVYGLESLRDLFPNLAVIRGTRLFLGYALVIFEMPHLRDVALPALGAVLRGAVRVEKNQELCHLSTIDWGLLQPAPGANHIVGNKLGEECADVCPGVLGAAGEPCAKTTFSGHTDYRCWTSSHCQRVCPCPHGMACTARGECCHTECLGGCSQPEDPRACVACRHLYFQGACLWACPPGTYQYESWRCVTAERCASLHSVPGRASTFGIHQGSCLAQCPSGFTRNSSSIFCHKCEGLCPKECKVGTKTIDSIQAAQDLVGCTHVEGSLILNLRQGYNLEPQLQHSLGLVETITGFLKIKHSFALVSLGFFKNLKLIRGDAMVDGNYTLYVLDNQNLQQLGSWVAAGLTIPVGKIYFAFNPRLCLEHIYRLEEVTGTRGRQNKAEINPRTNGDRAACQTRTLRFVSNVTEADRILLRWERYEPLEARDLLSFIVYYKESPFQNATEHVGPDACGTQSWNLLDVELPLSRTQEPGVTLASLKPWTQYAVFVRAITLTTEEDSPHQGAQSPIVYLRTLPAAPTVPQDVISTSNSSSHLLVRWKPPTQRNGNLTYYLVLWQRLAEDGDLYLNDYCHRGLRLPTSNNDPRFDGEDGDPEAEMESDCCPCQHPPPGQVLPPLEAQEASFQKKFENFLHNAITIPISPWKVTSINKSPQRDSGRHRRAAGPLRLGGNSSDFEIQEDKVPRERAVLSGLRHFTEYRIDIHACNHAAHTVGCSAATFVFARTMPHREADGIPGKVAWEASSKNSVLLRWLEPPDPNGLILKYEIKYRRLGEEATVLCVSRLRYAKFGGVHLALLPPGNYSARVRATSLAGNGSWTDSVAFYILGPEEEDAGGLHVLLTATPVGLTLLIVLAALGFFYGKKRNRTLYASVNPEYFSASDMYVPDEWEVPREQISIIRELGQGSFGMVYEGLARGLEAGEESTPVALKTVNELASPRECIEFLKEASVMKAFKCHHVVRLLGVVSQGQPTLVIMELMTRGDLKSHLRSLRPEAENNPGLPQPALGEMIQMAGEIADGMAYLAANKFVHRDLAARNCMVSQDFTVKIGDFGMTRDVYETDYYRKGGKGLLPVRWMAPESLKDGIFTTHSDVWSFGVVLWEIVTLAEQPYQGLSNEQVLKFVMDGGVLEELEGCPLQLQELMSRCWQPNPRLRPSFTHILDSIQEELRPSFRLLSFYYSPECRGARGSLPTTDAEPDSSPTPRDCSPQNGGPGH

Compound	remaining activity at 10 µM (IKKe)	remaining activity at 10 µM (Aurora B)	remaining activity at 10 µM (TBK1)	remaining activity at 10 µM (PIM3)	remaining activity at 10 µM (PKD1)	remaining activity at 10 µM (MNK1)	remaining activity at 10 µM (IRR)	remaining activity at 10 µM (PKCa)	remaining activity at 10 µM (p38a MAPK)
C[C@H](c1ccccc1)n1c(=O)[nH]c2ncc(-c3ccccc3)nc21 [Compound 14, (R)-6-Phenyl-1-(1-phenylethyl)-1H-imidazo[4,5-b]pyrazin-2(3H)-one]	91%	99%	100%	83%	44%	76%	112%	98%	88%
CC(c1ccccc1)n1c(=O)[nH]c2ncc(-c3ccc(F)cc3)nc21 (stereo not drawn) [Compound 1]	106%	117%	95%	83%	55%	83%	96%	101%	88%
O=c1[nH]c2ncc(-c3ccc(F)cc3)nc2n1CC1CC1 [Compound 10]	94%	93%	95%	89%	40%	93%	104%	106%	87%
O=c1[nH]c2ncc(-c3ccc(F)cc3)nc2n1C1CCCCC1 [Compound 12, 1-Cyclohexyl-6-(4-fluorophenyl)-1H-imidazo[4,5-b]pyrazin-2(3H)-one]	88%	85%	92%	90%	60%	93%	83%	94%	86%
